Test results: patent US5602153A, “Method of using 1-arylheteroarylalkyl substituted-1H-1,2,4-triazole compounds for treatment of a giaucoma disorder” (G.D. Searle & Co., priority 1993, dated 1997)
Read-outs that look alike come from different tables or passages of the source.

Key:
rabbit aortic rings = biological target: T1, rabbit aortic rings (Oryctolagus cuniculus, UniProt P34976); assay: Assay B: In Vitro Vascular Smooth Muscle-Response for AII (antagonist activity in rabbit aortic rings); assay type: cell-based, rabbit (male New Zealand white); conditions: antagonist 10^-5 M for 5 min, AII challenge
T1 construct: The thoracic aorta was removed, cleaned of adherent fat and connective tissue; from tissue; host or cells: thoracic aorta rings, endothelium removed, male New Zealand white rabbit
T1 sequence (P34976 1-359): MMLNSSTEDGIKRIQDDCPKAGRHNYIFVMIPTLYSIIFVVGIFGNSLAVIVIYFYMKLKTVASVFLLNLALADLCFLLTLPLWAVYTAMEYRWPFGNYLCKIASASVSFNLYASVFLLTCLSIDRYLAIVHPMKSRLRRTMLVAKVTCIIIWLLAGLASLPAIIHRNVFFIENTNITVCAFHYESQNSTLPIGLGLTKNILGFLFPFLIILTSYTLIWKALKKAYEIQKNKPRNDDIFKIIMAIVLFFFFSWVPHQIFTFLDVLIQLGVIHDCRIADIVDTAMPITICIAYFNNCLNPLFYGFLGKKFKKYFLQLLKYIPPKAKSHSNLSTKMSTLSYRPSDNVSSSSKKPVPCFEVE
Protocol: Assay B: In Vitro Vascular Smooth Muscle-Response for AII The compounds of the invention were tested for antagonist activity in rabbit aortic rings. Male New Zealand white rabbits (2-2.5 kg) were sacrificed using an overdose of pentobarbital and exsanguinated via the carotid arteries. The thoracic aorta was removed, cleaned of adherent fat and connective tissue and then cut into 3-mm ring segments. The endothelium was removed from the rings by gently sliding a rolled-up piece of filter paper into the vessel lumen. The rings were then mounted in a water-jacketed tissue bath, maintained at 37° C., between moveable and fixed ends of a stainless steel wire with the moveable end attached to an FT03 Grass transducer coupled to a Model 7D Grass Polygraph for recording isometric force responses. The bath was filled with 20 ml of oxygenated (95% oxygen/5% carbon dioxide) Krebs solution of the following composition (mM): 130 NaCl, 15 NaHCO3, 15 KCl, 1.2 NaH2 PO4, 1.2 MgSO4, 2.5 CaCl2, and 11.4 glucose. The preparations were equilibrated for one hour before approximately one gram of passive tension was placed on the rings. Angiotensin II concentration-response curves were then recorded (3×10^-10 to 1×10^-5 M). Each concentration of AII was allowed to elicit its maximal contraction, and then AII was washed out repeatedly for 30 minutes before rechallenging with a higher concentration of AII. Aorta rings were exposed to the test antagonist at 10^-5 M for 5 minutes before challenging with AII. Adjacent segments of the same aorta ring were used for all concentration-response curves in the presence or absence of the test antagonist. The effectiveness of the test compound was expressed in terms of pA2 values and were calculated according to H.O. Schild [Br. J. Pharmacol. Chemother., 2, 189-206 (1947)]. The pA2 value is the concentration of the antagonist which increases the EC50 value for AII by a factor of two. Each test antagonist was evaluated in aorta rings from two rabbits.

pressor response to AII = assay: Assay C: In Vivo Intragastric Pressor Assay Response for AII Antagonists; set-up: species or system rat (male Sprague-Dawley); conditions: po; 3 mg/kg i.g., rat, AII 30 ng/kg bolus
Protocol: Assay C: In Vivo Intragastric Pressor Assay Response for AII Antagonists of the Invention
Male Sprague-Dawley rats weighing 225-300 grams were anesthetized with methohexital (30 mg/kg, i.p.) and catheters were implanted into the femoral artery and vein. The catheters were tunneled subcutaneously to exit dorsally, posterior to the head and between the scapulae. The catheters were filled with heparin (1000 units/ml of saline). The rats were returned to their cage and allowed regular rat chow and water ad libitum. After full recovery from surgery (3-4 days), rats were placed in Lucite holders and the arterial line was connected to a pressure transducer. Arterial pressure was recorded on a Gould polygraph (mmHg). Angiotensin II was administered as a 30 ng/kg bolus via the venous catheter delivered in a 50 μl volume with a 0.2 ml saline flush. The pressor response in mmHg was measured by the difference from pre-injectionarterial pressure to the maximum pressure achieved. The AII injection was repeated every 10 minutes until three consecutive injections yielded responses within 4 mmHg of each other. These three responses were then averaged and represented the control response to AII. The test compound was suspended in 0.5% methylcellulose in water and was administered by gavage. The volume administered was 2 ml/kg body weight. The standard dose was 3 mg/kg. Angiotensin II bolus injections were given at 30, 45, 60, 75, 120, 150, and 180 minutes after gavage. The pressor response to AII was measured at each time point. The rats were then returned to their cage for future testing. A minimum of 3 days was allowed between tests. Percent inhibition was calculated for each time point following gavage by the following formula: [(Control Response-Response at time point)/Control Response]×100.

[1] = first of two rabbits, read-out: pA2 (first value) (converted)
[2] = second of two rabbits, read-out: pA2 (converted)

Compound `CCCCc1nc(CCCC)n(Cc2ccc(-c3ccccc3-c3nnn[nH]3)cn2)n1` [Example 1, 5-[2-[6-[(3,5-dibutyl-1H-1,2,4-triazol-1-yl)methyl]-3-pyridinyl]phenyl]-1H-tetrazole] has a Kb (rabbit aortic rings; [1]) of 13.2 nM, a Kb (rabbit aortic rings; [2]) of 9.77 nM and an inhibition in vivo at 3 mg/kg (pressor response to AII) of 20%.

In the case of `CCCCc1nc(CCCC)n(Cc2ccc(-c3ccccc3-c3nnn[nH]3)nc2)n1` [Example 3, 5-[2-[5-[(3,5-dibutyl-1H-1,2,4-triazol-1-yl)methyl]-2-pyridinyl]phenyl]-1H-tetrazole], the Kb (rabbit aortic rings; [1]) is reported as 2.69 nM, the Kb (rabbit aortic rings; [2]) is reported as 5.75 nM and the inhibition in vivo at 3 mg/kg (pressor response to AII) is reported as 40%.
